Source: patent publication US20220409619A1, “INHIBITORS OF HUMAN IMMUNODEFICIENCY VIRUS REPLICATION” (VIIV HEALTHCARE UK (No. 5) LIMITED, priority 2019, published 2022)

Key:
[1] = Compound cytotoxicity, XTT-based colorimetric assay; format: cell-based; details: human; uninfected MT2 cells, day 4, XTT-based colorimetric assay
Summary of the method: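 Run under the antiviral-assay protocol but without virus. Viability was read on day 4 and CC50 values were derived from the readout.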

[2] = tested on: recombinant NL4-3 virus (nef section replaced with Renilla luciferase gene) in MT-2 cells; test: HIV cell culture assay (antiviral activity, luciferase readout); format: cell-based; details: Renilla, NL43
Summary of the method: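 MT-2 cells were infected for 4-5 days with 293T-derived NL4-3 Renilla-luciferase reporter virus in the presence of serial compound dilutions. Luciferase was read with EnduRen live-cell substrate. EC50 was fitted with the median effect equation.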

For `Cn1nc(NS(C)(=O)=O)c2c(Cl)ccc(-n3c([C@H](Cc4cc(F)cc(F)c4)NC(=O)Cn4nc(C(F)F)c5c4C(F)(F)[C@@H]4C[C@H]54)nc(-c4cnc(C(C)(C)O)s4)cc3=O)c21` (atropisomer, axis not shown; (P)) [Example 25, N-((S)-1-((1P)-1-(4-chloro-1-methyl-3-(methylsulfonamido)-1H-indazol-7-yl)-4-(2-(2-hydroxypropan-2-yl)thiazol-5-yl)-6-oxo-1,6-dihydropyrimidin-2-yl)-2-(3,5-difluorophenyl)ethyl)-2-((3bS,4aR)-3-(difluoromethyl)-5,5-difluoro-3b,4,4a,5-tetrahydro-1H-cyclopropa[3,4]cyclopenta[1,2-c]pyrazol-1-yl)acetamide], which CC50 at 4 days [1] is on record?
The CC50 at 4 days was > 100 nM.

What about the EC50 [2] of the same compound?
The EC50 was 1.5 nM.

What does the source list for `O=C(Cn1nc(C(F)F)c2c1C(F)(F)[C@@H]1C[C@H]21)N[C@@H](Cc1cc(F)cc(F)c1)c1nc(-c2cccc(F)n2)cc(=O)n1-c1ccc(Cl)c2c(NS(=O)(=O)C3CC3)nn(CC(F)F)c12` (atropisomer, axis not shown; (P)) [Example 28, N-((S)-1-((1P)-1-(4-chloro-3-(cyclopropanesulfonamido)-1-(2,2-difluoroethyl)-1H-indazol-7-yl)-4-(6-fluoropyridin-2-yl)-6-oxo-1,6-dihydropyrimidin-2-yl)-2-(3,5-difluorophenyl)ethyl)-2-((3bS,4aR)-3-(difluoromethyl)-5,5-difluoro-3b,4,4a,5-tetrahydro-1H-cyclopropa[3,4]cyclopenta[1,2-c]pyrazol-1-yl)acetamide]?
CC50 at 4 days [1]: > 100 nM; EC50 [2]: 0.39 nM

Which CC50 at 4 days [1] does the source give for `CCOc1ccc(-c2cc(=O)n(-c3ccc(Cl)c4c(NS(=O)(=O)C5CC5)nn(CC(F)F)c34)c([C@H](Cc3cc(F)cc(F)c3)NC(=O)Cn3nc(C(F)F)c4c3C(F)(F)[C@@H]3C[C@H]43)n2)cn1` (atropisomer, axis not shown; (P)) [Example 37, N-((S)-1-((1P)-1-(4-chloro-3-(cyclopropanesulfonamido)-1-(2,2-difluoroethyl)-1H-indazol-7-yl)-4-(6-ethoxypyridin-3-yl)-6-oxo-1,6-dihydropyrimidin-2-yl)-2-(3,5-difluorophenyl)ethyl)-2-((3bS,4aR)-3-(difluoromethyl)-5,5-difluoro-3b,4,4a,5-tetrahydro-1H-cyclopropa[3,4]cyclopenta[1,2-c]pyrazol-1-yl)acetamide] here?
Its CC50 at 4 days is > 100 nM.

And the EC50 [2]?
The EC50 was 3.7 nM.

For `Cn1nc(NS(C)(=O)=O)c2c(Cl)ccc(-n3c([C@H](Cc4cc(F)cc(F)c4)NC(=O)Cn4nc(C(F)F)c5c4C(F)(F)[C@@H]4C[C@H]54)nc(-c4cnc(C(C)(F)F)s4)cc3=O)c21` (atropisomer, axis not shown; (P)) [Example 15, N-((S)-1-((1P)-1-(4-chloro-1-methyl-3-(methylsulfonamido)-1H-indazol-7-yl)-4-(2-(1,1-difluoroethyl)thiazol-5-yl)-6-oxo-1,6-dihydropyrimidin-2-yl)-2-(3,5-difluorophenyl)ethyl)-2-((3bS,4aR)-3-(difluoromethyl)-5,5-difluoro-3b,4,4a,5-tetrahydro-1H-cyclopropa[3,4]cyclopenta[1,2-c]pyrazol-1-yl)acetamide], which CC50 at 4 days [1] is on record?
The CC50 at 4 days was > 100 nM.

What about the EC50 [2] of the same compound?
Its EC50 is 0.59 nM.

For `CCOc1cnc(-c2cc(=O)n(-c3ccc(Cl)c4c(NS(=O)(=O)C5CC5)nn(CC(F)F)c34)c([C@H](Cc3cc(F)cc(F)c3)NC(=O)Cn3nc(C(F)F)c4c3C(F)(F)[C@@H]3C[C@H]43)n2)nc1` (atropisomer, axis not shown; (aR)) [Example 29, N-((S)-1-((1′P)-1′-(4-chloro-3-(cyclopropanesulfonamido)-1-(2,2-difluoroethyl)-1H-indazol-7-yl)-5-ethoxy-6′-oxo-1′,6′-dihydro-[2,4′-bipyrimidin]-2′-yl)-2-(3,5-difluorophenyl)ethyl)-2-((3bS,4aR)-3-(difluoromethyl)-5,5-difluoro-3b,4,4a,5-tetrahydro-1H-cyclopropa[3,4]cyclopenta[1,2-c]pyrazol-1-yl)acetamide], which CC50 at 4 days [1] is on record?
Its CC50 at 4 days is > 100 nM.

And the EC50 [2]?
The EC50 was 0.052 nM.

With `O=C(Cn1nc(C(F)(F)F)c2c1C(F)(F)[C@@H]1C[C@H]21)N[C@@H](Cc1cc(F)cc(F)c1)c1nc(-c2nccc(C(F)(F)F)n2)cc(=O)n1-c1ccc(Cl)c2c(NS(=O)(=O)C3CC3)nn(CC(F)F)c12` [Example 26, N-((S)-1-((1′P)-1′-(4-chloro-3-(cyclopropanesulfonamido)-1-(2,2-difluoroethyl)-1H-indazol-7-yl)-6′-oxo-4-(trifluoromethyl)-1′,6′-dihydro-[2,4′-bipyrimidin]-2′-yl)-2-(3,5-difluorophenyl)ethyl)-2-((3bS,4aR)-5,5-difluoro-3-(trifluoromethyl)-3b,4,4a,5-tetrahydro-1H-cyclopropa[3,4]cyclopenta[1,2-c]pyrazol-1-yl)acetamide] as the compound, how does the CC50 at 4 days [1] read?
The CC50 at 4 days was > 100 nM.

What about the EC50 [2] of the same compound?
The EC50 was 0.11 nM.

For `O=C(Cn1nc(C(F)F)c2c1C(F)(F)[C@@H]1C[C@H]21)N[C@@H](Cc1cc(F)cc(F)c1)c1nc(-c2ccc(C(F)(F)F)nc2)cc(=O)n1-c1ccc(Cl)c2c(NS(=O)(=O)C3CC3)nn(CC(F)F)c12` (atropisomer, axis not shown; (P)) [Example 38, N-((S)-1-((1P)-1-(4-chloro-3-(cyclopropanesulfonamido)-1-(2,2-difluoroethyl)-1H-indazol-7-yl)-6-oxo-4-(6-(trifluoromethyl)pyridin-3-yl)-1,6-dihydropyrimidin-2-yl)-2-(3,5-difluorophenyl)ethyl)-2-((3bS,4aR)-3-(difluoromethyl)-5,5-difluoro-3b,4,4a,5-tetrahydro-1H-cyclopropa[3,4]cyclopenta[1,2-c]pyrazol-1-yl)acetamide], which CC50 at 4 days [1] is on record?
The CC50 at 4 days was > 100 nM.

And the EC50 [2]?
The EC50 was 0.39 nM.

For `CCOc1ccc(-c2cc(=O)n(-c3ccc(Cl)c4c(NS(C)(=O)=O)nn(C)c34)c([C@H](Cc3cc(F)cc(F)c3)NC(=O)Cn3nc(C(F)F)c4c3C(F)(F)[C@@H]3C[C@H]43)n2)cn1` (atropisomer, axis not shown; (P)) [Example 22, N-((S)-1-((1P)-1-(4-chloro-1-methyl-3-(methylsulfonamido)-1H-indazol-7-yl)-4-(6-ethoxypyridin-3-yl)-6-oxo-1,6-dihydropyrimidin-2-yl)-2-(3,5-difluorophenyl)ethyl)-2-((3bS,4aR)-3-(difluoromethyl)-5,5-difluoro-3b,4,4a,5-tetrahydro-1H-cyclopropa[3,4]cyclopenta[1,2-c]pyrazol-1-yl)acetamide], which CC50 at 4 days [1] is on record?
Its CC50 at 4 days is > 100 nM.

And the EC50 [2]?
The EC50 was 0.46 nM.

With `COC(C)(C)CCc1cc(=O)n(-c2ccc(Cl)c3c(NS(C)(=O)=O)nn(C)c23)c([C@H](Cc2cc(F)cc(F)c2)NC(=O)Cn2nc(C(F)F)c3c2C(F)(F)[C@@H]2C[C@H]32)n1` (atropisomer, axis not shown; (P)) [Example 10, N-((S)-1-((1P)-1-(4-chloro-1-methyl-3-(methylsulfonamido)-1H-indazol-7-yl)-4-(3-methoxy-3-methylbutyl)-6-oxo-1,6-dihydropyrimidin-2-yl)-2-(3,5-difluorophenyl)ethyl)-2-((3bS,4aR)-3-(difluoromethyl)-5,5-difluoro-3b,4,4a,5-tetrahydro-1H-cyclopropa[3,4]cyclopenta[1,2-c]pyrazol-1-yl)acetamide] as the compound, how does the CC50 at 4 days [1] read?
Its CC50 at 4 days is > 100 nM.

What about the EC50 [2] of the same compound?
Its EC50 is 0.079 nM.

What does the source list for `O=C(Cn1nc(C(F)F)c2c1C(F)(F)[C@@H]1C[C@H]21)N[C@@H](Cc1cc(F)cc(F)c1)c1nc(-c2ncccn2)cc(=O)n1-c1ccc(Cl)c2c(NS(=O)(=O)C3CC3)nn(CC(F)F)c12` (atropisomer, axis not shown; (aR)) [Example 48, N-((S)-1-((1′P)-1′-(4-chloro-3-(cyclopropanesulfonamido)-1-(2,2-difluoroethyl)-1H-indazol-7-yl)-6′-oxo-1′,6′-dihydro-[2,4′-bipyrimidin]-2′-yl)-2-(3,5-difluorophenyl)ethyl)-2-((3bS,4aR)-3-(difluoromethyl)-5,5-difluoro-3b,4,4a,5-tetrahydro-1H-cyclopropa[3,4]cyclopenta[1,2-c]pyrazol-1-yl)acetamide]?
CC50 at 4 days [1]: > 100 nM; EC50 [2]: 0.18 nM

For `COc1cnc(-c2cc(=O)n(-c3ccc(Cl)c4c(NS(=O)(=O)C5CC5)nn(CC(F)F)c34)c([C@H](Cc3cc(F)cc(F)c3)NC(=O)Cn3nc(C(F)F)c4c3C(F)(F)[C@@H]3C[C@H]43)n2)cn1` (atropisomer, axis not shown; (P)) [Example 31, N-((S)-1-((1P)-1-(4-chloro-3-(cyclopropanesulfonamido)-1-(2,2-difluoroethyl)-1H-indazol-7-yl)-4-(5-methoxypyrazin-2-yl)-6-oxo-1,6-dihydropyrimidin-2-yl)-2-(3,5-difluorophenyl)ethyl)-2-((3bS,4aR)-3-(difluoromethyl)-5,5-difluoro-3b,4,4a,5-tetrahydro-1H-cyclopropa[3,4]cyclopenta[1,2-c]pyrazol-1-yl)acetamide], which CC50 at 4 days [1] is on record?
Its CC50 at 4 days is > 100 nM.

And the EC50 [2]?
The EC50 was 0.53 nM.

With `Cn1nc(NS(C)(=O)=O)c2c(Cl)ccc(-n3c([C@H](Cc4cc(F)cc(F)c4)NC(=O)Cn4nc(C(F)F)c5c4C(F)(F)[C@@H]4C[C@H]54)nc(-c4csc(C(C)(C)O)n4)cc3=O)c21` (atropisomer, axis not shown; (P)) [Example 18, N-((S)-1-((1P)-1-(4-chloro-1-methyl-3-(methylsulfonamido)-1H-indazol-7-yl)-4-(2-(2-hydroxypropan-2-yl)thiazol-4-yl)-6-oxo-1,6-dihydropyrimidin-2-yl)-2-(3,5-difluorophenyl)ethyl)-2-((3bS,4aR)-3-(difluoromethyl)-5,5-difluoro-3b,4,4a,5-tetrahydro-1H-cyclopropa[3,4]cyclopenta[1,2-c]pyrazol-1-yl)acetamide] as the compound, how does the CC50 at 4 days [1] read?
Its CC50 at 4 days is > 100 nM.

What about the EC50 [2] of the same compound?
The EC50 was 0.47 nM.
